Structures can show the parent of a compound that is named as a salt.
Tested on: 6-hydroxydopamine (6OHDA)-treated rats
Assay: Test for activity to hyperkinesia in 6-hydroxydopamine (6OHDA)-treated rats
Type: in vivo, rat
Settings: 50 mg/kg test compound intraperitoneally, then L-DOPA 30 mg/kg and benserazide 7.5 mg/kg orally; vehicle group 1,298±193; 180° rotation = 1 count
Protocol: Test for Activity to Hyperkinesia in 6-hydroxydopamine (6OHDA)-Treated Rats
When the unilateral nigrostriatal pathway is lesioned with 6-OHDA, sensitivity of dopamine receptors in the striatum on the lesioned side is increased. When a dopamine activity enhancing substance such as L-DOPA is administered thereto, a rotating behavior takes place on the side opposite to the lesioned side. This animal model has been long positioned as an excellent test model of Parkinson's disease, and has been used for research of therapeutic agent for Parkinson's disease [Neurol. Neurobiol. vol. 33, p. 1 (1987)]. […]
After withdrawal of the administration of apomorphine for 14 days, L-DOPA and bensetazide were orally administered to the rats at doses of 100 mg/kg and 25 mg/kg respectively to induce hyperkinesia. At this time, the number of rotations was measured for 60 minutes immediately after the administration. […]
After 7 days from the dividing into groups, the number of rotations for 60 minutes was measured by similar manner as that of above-mentioned. […] Immediately after the administration, 30 mg/kg of L-DOPA and 7.5 mg/kg of benserazide were orally administered to A and B groups, and the number of rotations for 60 minutes was measured every 5 minutes. […]

With `Cc1c(-c2ccc(-c3ccccc3CN3CCOCC3)cc2)nc2ccc(F)cc2c1CO` [Compound 12, 6-Fluoro-4-hydroxymethyl-3-methyl-2-(2′-morpholinomethylbiphenyl-4-yl)quinoline dihydrochloride] the “total number of rotations for 60 minutes” value was 48±20.

Reference: patent publication US20060111368A1, “Phosphodiesterase inhibitor” (Kyowa Hakko Kogyo Co., Ltd., priority 2002, published 2006)
